Source: US20250186627A1, “RADIOLABELED COMPOUNDS TARGETING THE PROSTATE-SPECIFIC MEMBRANE ANTIGEN” (PROVINCIAL HEALTH SERVICES AUTHORITY, priority 2022, published 2025)
*1 amine or outer side, *2 acyl side, *3 side chain or, on linkers, in order; H or OH if unused. Where a SMILES comes first, the peptide text is derived from it. [ ]: non-standard residue; d: D form. The star is where a group is joined. ξ: configuration not given here. DOTA = O=C(O)CN1CCN(CC(=O)O)CCN(CC(=O)*)CCN(CC(=O)O)CC1; Butanoyl(4-(4-MeO-phenyl)) = COc1ccc(CCCC(=O)*)cc1; ξAla(9-anthryl) = NC(Cc1c2ccccc2cc2ccccc12)C(=O)O; X2 = O=C(NC(CCCCN*)C(=O)O)NC(CC(F)C(=O)O)C(=O)O; X1 = O=C(C1CCC(CN[*:1])CC1)[*:2]; ξK = NCCCCC(N)C(=O)O

Tested on: NRG-mice bearing LNCaP tumors
Test: Biodistribution (and PET/SPECT imaging) in NRG-mice bearing LNCaP tumors
Assay type: in vivo
Conditions: Avg
Protocol: LNCaP cell line was obtained from ATCC (LNCaP clone FGC, CRL-1740). It was established from a metastatic site of left supraclavicular lymph node of human prostatic adenocarcinoma. Cells were cultured in PRMI 1640 medium supplemented with 10% FBS, penicillin (100 U/mL) and streptomycin (100 μg/mL) at 37° C. in a humidified incubator containing 5% CO2. Cells grown to 80-90% confluence were then washed with sterile phosphate-buffered saline (1×PBS pH 7.4) and trypsinization. The collected cells number was counted with a Hausser Scientific (Horsham, PA) Hemacytometer. Approximately 10 million LNCaP cells were inoculated into the left dorsal flank of immunocomprised NRG mice. The tumours were allowed to grow for 4-6 weeks and used for imaging and biodistribution studies when a volume of 200-600 mm^3 was reached.
PET imaging experiments were conducted using Siemens Inveon micro PET/CT scanner. SPECT imaging experiments were conducted using an MILabs micro SPECT/CT scanner. Each tumor bearing mouse was injected 4-6 MBq of ^68Ga or 18.5 MBq of ^177Lu labeled tracer through the tail vein under anesthesia (2% isoflurane in oxygen). The mice were allowed to recover and roam freely in their cage. At pre-defined time point, the mice were sedated again with 2% isoflurane in oxygen inhalation and positioned in the scanner. A 10-min CT scan was conducted first for localization and attenuation correction after segmentation for reconstructing the PET or SPECT images. Then, a 10-min static PET imaging or a one hour (30 min×2 frames) of static SPECT scan was performed to determined uptake in tumor and other organs. The mice were kept warm by a heating pad during acquisition.
For biodistribution studies, the mice were injected with the radiotracer as described above. The mice were anesthetized with 2% isoflurane inhalation, and euthanized by CO2 inhalation. Blood was withdrawn immediately from the heart, and the organs/tissues of interest were collected. The collected organs/tissues were weighed and counted using a Perkin Elmer (Waltham, MA) Wizard2 2480 gamma counter. The uptake in each organ/tissue was normalized to the injected dose (radioactivity) using a standard curve, and expressed as the percentage of the injected dose per gram of tissue (% ID/g).

Compound: COc1ccc(CCCC(=O)NCC(=O)NC(CCCCNC(=O)CN2CCN(CC(=O)[O-])CCN(CC(=O)[O-])CCN(CC(=O)[O-])CC2)C(=O)NCC(=O)NCC2CCC(C(=O)NC(Cc3c4ccccc4cc4ccccc34)C(=O)NCCCCC(NC(=O)NC(CC(F)C(=O)O)C(=O)O)C(=O)O)CC2)cc1.[177Lu+3] (stereo not drawn) [^177Lu-CCZ02008] ({Butanoyl(4-(4-MeO-phenyl))}-G[ξK](DOTA)G[X1][ξAla(9-anthryl)]-X2)
- Biodistribution: Adrenal gland (4 h p.i.): 5.91 % ID/g
- Biodistribution: Blood (4 h p.i.): 24.97 % ID/g
- Biodistribution: Bone (4 h p.i.): 1.49 % ID/g
- Biodistribution: Brain (4 h p.i.): 0.47 % ID/g
- Biodistribution: Fat (4 h p.i.): 2.63 % ID/g
- Biodistribution: Heart (4 h p.i.): 5.42 % ID/g
- Biodistribution: Intestine (4 h p.i.): 1.87 % ID/g
- Biodistribution: LNCaP tumor (4 h p.i.): 21.30 % ID/g
- Biodistribution: Lacrimal gland (4 h p.i.): 1.44 % ID/g
- Biodistribution: Liver (4 h p.i.): 4.26 % ID/g
- Biodistribution: Lungs (4 h p.i.): 10.19 % ID/g
- Biodistribution: Muscle (4 h p.i.): 1.75 % ID/g
- Biodistribution: Pancreas (4 h p.i.): 2.20 % ID/g
- Biodistribution: Salivary gland (4 h p.i.): 4.23 % ID/g
- Biodistribution: Seminal gland (4 h p.i.): 1.53 % ID/g
- Biodistribution: Spleen (4 h p.i.): 2.15 % ID/g
- Biodistribution: Stomach (4 h p.i.): 1.11 % ID/g
- Biodistribution: Testes (4 h p.i.): 3.83 % ID/g
- Biodistribution: Thyroid (4 h p.i.): 4.29 % ID/g
- Biodistribution: Urine (4 h p.i.): 76.61 % ID/g
- Biodistribution: kidney (4 h p.i.): 10.56 % ID/g
- Biodistribution: Adrenal gland (24 h p.i.): 2.39 % ID/g
- Biodistribution: Blood (24 h p.i.): 4.37 % ID/g
- Biodistribution: Bone (24 h p.i.): 0.36 % ID/g
- Biodistribution: Brain (24 h p.i.): 0.09 % ID/g
- Biodistribution: Fat (24 h p.i.): 0.71 % ID/g
- Biodistribution: Heart (24 h p.i.): 1.27 % ID/g
- Biodistribution: Intestine (24 h p.i.): 0.59 % ID/g
- Biodistribution: LNCaP tumor (24 h p.i.): 38.57 % ID/g
- Biodistribution: Lacrimal gland (24 h p.i.): 0.12 % ID/g
- Biodistribution: Liver (24 h p.i.): 1.16 % ID/g
- Biodistribution: Lungs (24 h p.i.): 2.49 % ID/g
- Biodistribution: Muscle (24 h p.i.): 0.40 % ID/g
- Biodistribution: Pancreas (24 h p.i.): 0.62 % ID/g
- Biodistribution: Salivary gland (24 h p.i.): 1.38 % ID/g
- Biodistribution: Seminal gland (24 h p.i.): 0.38 % ID/g
- Biodistribution: Spleen (24 h p.i.): 0.86 % ID/g
- Biodistribution: Stomach (24 h p.i.): 0.48 % ID/g
- Biodistribution: Testes (24 h p.i.): 1.86 % ID/g
- Biodistribution: Thyroid (24 h p.i.): 1.54 % ID/g
- Biodistribution: Urine (24 h p.i.): 28.57 % ID/g
- Biodistribution: kidney (24 h p.i.): 7.55 % ID/g
- Biodistribution: Adrenal gland (72 h p.i.): 2.59 % ID/g
- Biodistribution: Blood (72 h p.i.): 0.42 % ID/g
- Biodistribution: Bone (72 h p.i.): 0.26 % ID/g
- Biodistribution: Brain (72 h p.i.): 0.03 % ID/g
- Biodistribution: Fat (72 h p.i.): 0.39 % ID/g
- Biodistribution: Heart (72 h p.i.): 0.37 % ID/g
- Biodistribution: Intestine (72 h p.i.): 0.15 % ID/g
- Biodistribution: LNCaP tumor (72 h p.i.): 38.46 % ID/g
- Biodistribution: Lacrimal gland (72 h p.i.): 0.07 % ID/g
- Biodistribution: Liver (72 h p.i.): 0.47 % ID/g
- Biodistribution: Lungs (72 h p.i.): 0.69 % ID/g
- Biodistribution: Muscle (72 h p.i.): 0.11 % ID/g
- Biodistribution: Pancreas (72 h p.i.): 0.17 % ID/g
- Biodistribution: Salivary gland (72 h p.i.): 0.55 % ID/g
- Biodistribution: Seminal gland (72 h p.i.): 0.15 % ID/g
- Biodistribution: Spleen (72 h p.i.): 0.83 % ID/g
- Biodistribution: Stomach (72 h p.i.): 0.18 % ID/g
- Biodistribution: Testes (72 h p.i.): 0.92 % ID/g
- Biodistribution: Thyroid (72 h p.i.): 0.65 % ID/g
- Biodistribution: Urine (72 h p.i.): 4.51 % ID/g
- Biodistribution: kidney (72 h p.i.): 3.53 % ID/g
- Biodistribution: Adrenal gland (120 h p.i.): 1.39 % ID/g
- Biodistribution: Blood (120 h p.i.): 0.14 % ID/g
- Biodistribution: Bone (120 h p.i.): 0.14 % ID/g
- Biodistribution: Brain (120 h p.i.): 0.02 % ID/g
- Biodistribution: Fat (120 h p.i.): 0.22 % ID/g
- Biodistribution: Heart (120 h p.i.): 0.22 % ID/g
- Biodistribution: Intestine (120 h p.i.): 0.14 % ID/g
- Biodistribution: LNCaP tumor (120 h p.i.): 45.01 % ID/g
- Biodistribution: Lacrimal gland (120 h p.i.): 0.12 % ID/g
- Biodistribution: Liver (120 h p.i.): 0.30 % ID/g
- Biodistribution: Lungs (120 h p.i.): 0.30 % ID/g
- Biodistribution: Muscle (120 h p.i.): 0.09 % ID/g
- Biodistribution: Pancreas (120 h p.i.): 0.11 % ID/g
- Biodistribution: Salivary gland (120 h p.i.): 0.34 % ID/g
- Biodistribution: Seminal gland (120 h p.i.): 0.27 % ID/g
- Biodistribution: Spleen (120 h p.i.): 1.45 % ID/g
- Biodistribution: Stomach (120 h p.i.): 0.37 % ID/g
- Biodistribution: Testes (120 h p.i.): 0.67 % ID/g
- Biodistribution: Thyroid (120 h p.i.): 0.39 % ID/g
- Biodistribution: Urine (120 h p.i.): 3.80 % ID/g
- Biodistribution: kidney (120 h p.i.): 2.04 % ID/g
